Values of other authors, collected in patent US20070276004A1, “Pharmaceutical Composition Comprising an Immunosuppressant for Use in the Treatment of Skin Diseases” (priority 2003, published 2007).

Tested on: allogeneic kidney transplantation
Conditions: rat model of allogeneic kidney transplantation; oral administration; suppression of systemic immune response

For `C=CC[C@@H]1/C=C(\C)C[C@H](C)C[C@H](OC)[C@H]2O[C@@](O)(C(=O)C(=O)N3CCCC[C@H]3C(=O)O[C@H](/C(C)=C/[C@@H]3CC[C@@H](O)[C@H](OC)C3)[C@H](C)[C@@H](O)CC1=O)[C@H](C)C[C@@H]2OC` [tacrolimus], the “minimum effective dose (MED)” value is given as 14 mg/kg.
